From ChEMBL document CHEMBL1131979, “Synthesis and SAR studies of 1-substituted-n-(4-alkoxycarbonylpiperidin-1-yl)alkanes as potent antiarrhythmic agents” (Bioorg Med Chem Lett, 1999)
Blank lines part the entries; values can stand above or below the compound they belong to. Calls of active or inactive are those of the source. The rule behind the calls is not given here.

Experiments:
[1] = Lipophilicity was determined; type: physicochemical; conditions: octanol/water
Cavia porcellus [2] = test: Appearance of ectopic beat (EA) in guinea pig tested for in vivo antiarrhythmic activity against ouabain induced cardiac arrhythmias at a dose of 10 mg/kg by iv administration; type: functional, Heart
Cavia porcellus [3] = test: Appearance of ectopic beat (EA) in guinea pig tested for in vivo antiarrhythmic activity against ouabain induced cardiac arrhythmias at a dose of 20 mg/kg by po administration; type: functional, Heart
Cavia porcellus [4] = test: Cardiac arrest(CA) in […] guinea pig tested for in vivo antiarrhythmic activity against ouabain induced cardiac arrhythmias at a dose of 20 mg/kg by po administration; type: functional, Heart
Cavia porcellus [5] = test: Change in heart rate(HR) in guinea pig tested for in vivo antiarrhythmic activity against ouabain induced cardiac arrhythmias at a dose of 10 mg/kg by iv administration; value ranges from 17-30%; type: functional
Cavia porcellus [6] = test: Change in heart rate(HR) in guinea pig tested for in vivo antiarrhythmic activity against ouabain induced cardiac arrhythmias at a dose of 20 mg/kg by po administration; value ranges from 10-35%; type: functional
Cavia porcellus [7] = species: Cavia porcellus; test: Antiarrhythmic effect expressed as percent reduction of the maximal rate of stimulation for antiarrhythmic activity in guinea pig auricle at 8 uM; type: functional, Heart
Cavia porcellus [8] = test: Cardiac arrest(CA) in guinea pig tested for in vivo antiarrhythmic activity against ouabain induced cardiac arrhythmias at a dose of 10 mg/kg by iv administration; type: functional, Heart
Cavia porcellus [9] = test: Ventricular fibrillation (VF) in guinea pig tested for in vivo antiarrhythmic activity against ouabain induced cardiac arrhythmias at a dose of 10 mg/kg by iv administration; type: functional, Heart
Cavia porcellus [10] = test: Ventricular fibrillation (VF) in guinea pig tested for in vivo antiarrhythmic activity against ouabain induced cardiac arrhythmias at a dose of 20 mg/kg by po administration; type: functional, Heart
Rattus norvegicus [11] = test: Ventricular fibrillation (VF) in rats tested for in vivo Antiarrhythmic activity against aconitine induced arrhythmias at a dose of 10 mg/kg by iv administration; type: functional, Heart
Rattus norvegicus [12] = test: Ventricular tachycardia (VT) in rats tested for in vivo Antiarrhythmic activity against aconitine induced arrhythmias at a dose of 10 mg/kg by iv administration; type: functional, Heart
Rattus norvegicus [13] = test: Ventricular tachycardia (VT) in rats tested for in vivo Antiarrhythmic activity against aconitine induced arrhythmias at a dose of 25 mg/kg by po administration; type: functional, Heart
Rattus norvegicus [14] = test: Change in heart rate(HR) in rats tested for in vivo antiarrhythmic activity against aconitine induced arrhythmia at a dose of 10 mg/kg by iv administration; value ranges from 16-34; type: functional
Rattus norvegicus [15] = test: Change in heart rate(HR) in rats tested for in vivo antiarrhythmic activity against aconitine induced arrhythmias at a dose of 25 mg/kg by po administration; value ranges from 16-34; type: functional
Rattus norvegicus [16] = test: Appearance of ectopic beat (EA) in rats tested for in vivo Antiarrhythmic activity against aconitine induced arrhythmias at a dose of 10 mg/kg by iv administration; type: functional, Heart
Rattus norvegicus [17] = test: Appearance of ectopic beat (EA) in rats tested for in vivo Antiarrhythmic activity against aconitine induced arrhythmias at a dose of 25 mg/kg by po administration; type: functional, Heart
Rattus norvegicus [18] = test: Cardiac arrest(CA) in rats tested for in vivo Antiarrhythmic activity against aconitine induced arrhythmias at a dose of 10 mg/kg by iv administration; type: functional, Heart
Rattus norvegicus [19] = test: Cardiac arrest(CA) in rats tested for in vivo Antiarrhythmic activity against aconitine induced arrhythmias at a dose of 25 mg/kg by po administration; type: functional, Heart
Rattus norvegicus [20] = test: Ventricular fibrillation (VF) in rats tested for in vivo Antiarrhythmic activity against aconitine induced arrhythmias at a dose of 25 mg/kg by po administration; type: functional, Heart
Cavia porcellus [21] = species: Cavia porcellus; test: Antiarrhythmic effect expressed as percent reduction of the maximal rate of stimulation for antiarrhythmic activity in guinea pig auricle at 8 uM; NS means not significant; type: functional; conditions: Heart
Cavia porcellus [22] = test: Change in heart rate(HR) in guinea pig tested for in vivo antiarrhythmic activity against ouabain induced cardiac arrhythmias at a dose of 20 mg/kg by po administration; value ranges from 18-27%; type: functional
Cavia porcellus [23] = test: Change in heart rate(HR) in guinea pig tested for in vivo antiarrhythmic activity against ouabain induced cardiac arrhythmias at a dose of 10 mg/kg by iv administration; value ranges from 17-18%; type: functional
Rattus norvegicus [24] = test: Change in heart rate(HR) in rats tested for in vivo antiarrhythmic activity against aconitine induced arrhythmias at a dose of 10 mg/kg by iv administration; value ranges from 18-30%; type: functional
Rattus norvegicus [25] = test: Change in heart rate(HR) in rats tested for in vivo antiarrhythmic activity against aconitine induced arrhythmias at a dose of 25 mg/kg by po administration; value ranges from 11-17%; type: functional

Log P/(100-P) [1]: -0.493
SMILES: COC(=O)C1CCN(CCCC(=O)c2ccc(F)cc2)CC1
Amount of Ouabain used (Cavia porcellus [2]): 101.35
Amount of Ouabain used (Cavia porcellus [3]): 124.56
Amount of Ouabain used (Cavia porcellus [4]): 187.05
Change in heart rate (Cavia porcellus [5]): 17%
Change in heart rate (Cavia porcellus [6]): 10%
Inhibition (Cavia porcellus [7]): 24.33%
Amount of Ouabain used (Cavia porcellus [8]): 175.76
Amount of Ouabain used (Cavia porcellus [9]): 138.04
Amount of Ouabain used (Cavia porcellus [10]): 153.65
Amount of Acotine used (Rattus norvegicus [11]): 373.36
Amount of Acotine used (Rattus norvegicus [12]): 231.27
Amount of Acotine used (Rattus norvegicus [13]): 226.74
Change in heart rate (Rattus norvegicus [14]): 16%
Change in heart rate (Rattus norvegicus [15]): 16%
Amount of Acotine used (Rattus norvegicus [16]): 132.79
Amount of Acotine used (Rattus norvegicus [17]): 159.29
Amount of Acotine used (Rattus norvegicus [18]): 544.28
Amount of Acotine used (Rattus norvegicus [19]): 457.72
Amount of Acotine used (Rattus norvegicus [20]): 356.09

Log P/(100-P) [1]: -0.462
SMILES: CCOC(=O)C1CCN(CCCC(=O)c2ccc(F)cc2)CC1
Inhibition (Cavia porcellus [7]): 25.66%

SMILES: COC(=O)C1CCN(CCCN2CCN(c3ccccn3)CC2)CC1
inhibition (Cavia porcellus [21]): inactive

SMILES: COC(=O)C1CCN(CCCN2CCN(c3ccc(F)cc3)CC2)CC1
inhibition (Cavia porcellus [21]): inactive

Log P/(100-P) [1]: -1.123
SMILES: COC(=O)C1CCN(CCCOc2cccc(NC(C)=O)c2)CC1
Inhibition (Cavia porcellus [7]): 7%

Log P/(100-P) [1]: -1.195
SMILES: COC(=O)C1CCN(CCCN2CCN(c3ccccc3)CC2)CC1
Inhibition (Cavia porcellus [7]): 6%

Log P/(100-P) [1]: -0.954
SMILES: CCCOC(=O)C1CCN(CCCC(=O)c2ccc(F)cc2)CC1
Inhibition (Cavia porcellus [7]): 10%

Log P/(100-P) [1]: -0.865
SMILES: CC(C)OC(=O)C1CCN(CCCC(=O)c2ccc(F)cc2)CC1
Inhibition (Cavia porcellus [7]): 12%

SMILES: C=C[C@H]1CN2CC[C@H]1C[C@@H]2[C@@H](O)c1ccnc2ccc(OC)cc12.C=C[C@H]1CN2CC[C@H]1C[C@@H]2[C@@H](O)c1ccnc2ccc(OC)cc12.O.O.O=S(=O)(O)O [QUINIDINE SULFATE]
Amount of Ouabain used (Cavia porcellus [2]): 128.33
Amount of Ouabain used (Cavia porcellus [3]): 138.99
Amount of Ouabain used (Cavia porcellus [4]): 225.31
Change in heart rate (Cavia porcellus [22]): 18%
Inhibition (Cavia porcellus [7]): 29.68%
Amount of Ouabain used (Cavia porcellus [8]): 187.59
Amount of Ouabain used (Cavia porcellus [9]): 167.78
Amount of Ouabain used (Cavia porcellus [10]): 201.34
Change in heart rate (Cavia porcellus [23]): 17%
Amount of Acotine used (Rattus norvegicus [11]): 370
Amount of Acotine used (Rattus norvegicus [12]): 252.72
Amount of Acotine used (Rattus norvegicus [13]): 237.02
Change in heart rate (Rattus norvegicus [24]): 18%
Change in heart rate (Rattus norvegicus [25]): 11%
Amount of Acotine used (Rattus norvegicus [16]): 156.24
Amount of Acotine used (Rattus norvegicus [17]): 173.66
Amount of Acotine used (Rattus norvegicus [18]): 523.64
Amount of Acotine used (Rattus norvegicus [19]): 581.06
Amount of Acotine used (Rattus norvegicus [20]): 416.36

Log P/(100-P) [1]: -0.954
SMILES: COC(=O)C1CCN(CCC(=O)N2CCN(c3ccc(F)cc3)CC2)CC1
Inhibition (Cavia porcellus [7]): 10%
